Measured values as given in ChEMBL document CHEMBL1137231, “Efficient evaluation of binding free energy using continuum electrostatics solvation” (J Med Chem, 2004).
Numbered stars: 1 amine (or outer) side, 2 acyl side, 3 side chain; on linkers, the order of the positions; unused ones are H or OH. Square brackets hold non-standard residues; d marks the D form. Peptide text beside a SMILES is read from it. * marks the point of attachment. Hexanoyl(5S-NH,4S-OH,6-Ph) = O=C(CC[C@H](O)[C@H](Cc1ccccc1)N[*:1])[*:2]; X3 = O=C([C@H](Cc1ccccc1)C[C@H](O)[C@H](Cc1ccccc1)N[*:1])[*:2]; X4 = CC(C)C[C@H](C[C@H](O)[C@H](Cc1ccccc1)N[*:1])C(=O)[*:2]; X1 = CCC[C@H](C[C@H](O)[C@H](Cc1ccccc1)N[*:1])C(=O)[*:2]; X2 = C[C@H](C[C@H](O)[C@H](Cc1ccccc1)N[*:1])C(=O)[*:2]; Cbz = O=C(OCc1ccccc1)*

Target: Human immunodeficiency virus type 1 protease (Human immunodeficiency virus 1, UniProt Q72874)
Assay: Binding affinity towards human immunodeficiency virus type 1 protease determined using continuum electrostatics solvation

Compound | Ki
CCC[C@H](C[C@H](O)C(Cc1ccccc1)NC(=O)C(C)NC(=O)OCc1ccccc1)C(=O)NC(C(=O)NC(C(=O)OC)C(C)C)C(C)C (some centres undefined) | 0.6 nM
CC(NC(=O)OCc1ccccc1)C(=O)NC(Cc1ccccc1)[C@@H](O)C[C@@H](C)C(=O)NC(C(N)=O)C(C)C (some centres undefined) | 50 nM
CC(C)C(NC(=O)[C@H](C)C[C@H](O)C(Cc1ccccc1)NC(=O)OC(C)(C)C)C(N)=O (some centres undefined) | 260 nM
CC(C)C[C@H](C[C@H](O)C(Cc1ccccc1)NC(=O)OC(C)(C)C)C(=O)NC(C(N)=O)C(C)C (some centres undefined) | 23 nM
COC(=O)[C@@H](NC(=O)[C@@H](NC(=O)CC[C@H](O)[C@H](Cc1ccccc1)NC(=O)[C@H](C)NC(=O)[C@H](C)N)C(C)C)C(C)C (H-AA[Hexanoyl(5S-NH,4S-OH,6-Ph)]VV-OMe) | 4 nM
COC(=O)C(NC(=O)C(NC(=O)CC[C@H](O)C(Cc1ccccc1)NC(=O)C(C)NC(=O)OCc1ccccc1)C(C)C)C(C)C (some centres undefined) | 118 nM
COC(=O)[C@@H](NC(=O)[C@@H](NC(=O)[C@H](Cc1ccccc1)C[C@H](O)[C@H](Cc1ccccc1)NC(=O)[C@H](C)NC(=O)[C@H](C)NC(=O)OCc1ccccc1)C(C)C)C(C)C (Cbz-AA[X3]VV-OMe) | 0.4 nM
CCC[C@H](C[C@H](O)[C@H](Cc1ccccc1)NC(=O)[C@H](C)NC(=O)[C@H](C)NC(=O)OCc1ccccc1)C(=O)N[C@H](C(=O)N[C@H](C(=O)OC)C(C)C)C(C)C (Cbz-AA[X1]VV-OMe) | 0.4 nM
COC(=O)C(NC(=O)C(NC(=O)[C@H](CC(C)C)C[C@H](O)C(Cc1ccccc1)NC(=O)C(C)NC(=O)OCc1ccccc1)C(C)C)C(C)C (some centres undefined) | 0.9 nM
COC(=O)[C@@H](NC(=O)[C@@H](NC(=O)[C@H](C)C[C@H](O)[C@H](Cc1ccccc1)NC(=O)[C@H](C)NC(=O)[C@H](C)N)C(C)C)C(C)C (H-AA[X2]VV-OMe) | 3 nM
COC(=O)[C@@H](NC(=O)[C@@H](NC(=O)[C@H](CC(C)C)C[C@H](O)[C@H](Cc1ccccc1)NC(=O)[C@H](C)NC(=O)[C@H](C)NC(=O)OCc1ccccc1)C(C)C)C(C)C (Cbz-AA[X4]VV-OMe) | 0.8 nM
COC(=O)[C@@H](NC(=O)[C@@H](NC(=O)[C@H](CC(C)C)C[C@H](O)[C@H](Cc1ccccc1)NC(=O)[C@H](C)NC(=O)[C@H](C)N)C(C)C)C(C)C (H-AA[X4]VV-OMe) | 0.6 nM
COC(=O)C(NC(=O)C(NC(=O)[C@H](Cc1ccccc1)C[C@H](O)C(Cc1ccccc1)NC(=O)C(C)NC(=O)OCc1ccccc1)C(C)C)C(C)C (some centres undefined) | 0.6 nM
CC(NC(=O)OCc1ccccc1)C(=O)NC(Cc1ccccc1)[C@@H](O)CCC(=O)NC(C(N)=O)C(C)C (some centres undefined) | 2500 nM
COC(=O)[C@@H](NC(=O)[C@@H](NC(=O)[C@H](C)C[C@H](O)[C@H](Cc1ccccc1)NC(=O)[C@H](C)NC(=O)[C@H](C)NC(=O)OCc1ccccc1)C(C)C)C(C)C (Cbz-AA[X2]VV-OMe) | 0.6 nM
CC(C)C(NC(=O)CC[C@H](O)C(Cc1ccccc1)NC(=O)OC(C)(C)C)C(N)=O (some centres undefined) | 6500 nM
CCC[C@H](C[C@H](O)C(Cc1ccccc1)NC(=O)OC(C)(C)C)C(=O)NC(C(N)=O)C(C)C (some centres undefined) | 50 nM
COC(=O)[C@@H](NC(=O)[C@@H](NC(=O)CC[C@H](O)[C@H](Cc1ccccc1)NC(=O)[C@H](C)NC(=O)[C@H](C)NC(=O)OCc1ccccc1)C(C)C)C(C)C (Cbz-AA[Hexanoyl(5S-NH,4S-OH,6-Ph)]VV-OMe) | 44 nM
COC(=O)C(NC(=O)C(NC(=O)[C@H](C)C[C@H](O)C(Cc1ccccc1)NC(=O)C(C)NC(=O)OCc1ccccc1)C(C)C)C(C)C (some centres undefined) | 1.6 nM
CC(NC(=O)OCc1ccccc1)C(=O)NC(Cc1ccccc1)[C@@H](O)C[C@@H](Cc1ccccc1)C(=O)NC(C(N)=O)C(C)C (some centres undefined) | 0.6 nM
CC(C)C[C@H](C[C@H](O)C(Cc1ccccc1)NC(=O)C(C)NC(=O)OCc1ccccc1)C(=O)NC(C(N)=O)C(C)C (some centres undefined) | 3.9 nM
CC(C)C(NC(=O)[C@H](Cc1ccccc1)C[C@H](O)C(Cc1ccccc1)NC(=O)OC(C)(C)C)C(N)=O (some centres undefined) | 1.4 nM
CCC[C@H](C[C@H](O)[C@H](Cc1ccccc1)NC(=O)[C@H](C)NC(=O)[C@H](C)N)C(=O)N[C@H](C(=O)N[C@H](C(=O)OC)C(C)C)C(C)C (H-AA[X1]VV-OMe) | 1.2 nM
CCC[C@H](C[C@H](O)C(Cc1ccccc1)NC(=O)C(C)NC(=O)OCc1ccccc1)C(=O)NC(C(N)=O)C(C)C (some centres undefined) | 20 nM

Target: Beta-secretase 1 (Homo sapiens, UniProt P56817)
Assay: Binding affinity towards Beta-secretase determined using continuum electrostatics solvation

Chain of Beta-secretase 1 (P56817 whole entry): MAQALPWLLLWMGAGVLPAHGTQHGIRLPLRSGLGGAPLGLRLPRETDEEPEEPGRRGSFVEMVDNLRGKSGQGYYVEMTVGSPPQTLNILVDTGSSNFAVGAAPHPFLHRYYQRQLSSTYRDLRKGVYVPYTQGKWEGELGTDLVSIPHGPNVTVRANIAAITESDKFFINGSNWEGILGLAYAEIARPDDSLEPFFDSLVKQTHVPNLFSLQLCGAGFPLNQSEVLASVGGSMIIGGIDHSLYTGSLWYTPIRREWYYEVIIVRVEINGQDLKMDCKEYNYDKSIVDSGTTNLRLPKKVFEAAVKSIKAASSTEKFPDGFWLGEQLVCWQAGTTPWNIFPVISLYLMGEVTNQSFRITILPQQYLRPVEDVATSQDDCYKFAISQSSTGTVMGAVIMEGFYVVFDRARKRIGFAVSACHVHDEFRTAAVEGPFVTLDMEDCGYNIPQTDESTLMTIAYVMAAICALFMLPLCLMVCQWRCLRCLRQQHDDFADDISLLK

Ki | Compound
22400 nM | CC(C)C[C@H](NC(=O)[C@@H](NC(=O)OC(C)(C)C)C(N)=O)C(O)CC(C)C(=O)N[C@@H](C)C(=O)NCc1ccccc1 (some centres undefined)
58.8 nM | CSCCC(NC(=O)OC(C)(C)C)C(=O)N[C@@H](CC(C)C)C(O)CC(C)C(=O)N[C@H](C(=O)NCc1ccccc1)C(C)C (some centres undefined)
3130 nM | CC(C)C[C@H](NC(=O)[C@@H](NC(=O)OC(C)(C)C)C(N)=O)C(O)CC(C)C(=O)N[C@H](C(=O)NCc1ccccc1)C(C)C (some centres undefined)
50.1 nM | CSCC(NC(=O)[C@@H](NC(=O)OC(C)(C)C)C(C)C)C(=O)N[C@@H](CC(C)C)C(O)CC(C)C(=O)N[C@H](C(=O)NCc1ccccc1)C(C)C (some centres undefined)
1130 nM | CC(C)C[C@H](NC(=O)[C@H](CS(C)(=O)=O)NC(=O)OC(C)(C)C)C(O)CC(C)C(=O)N[C@H](C(=O)NCc1ccccc1)C(C)C (some centres undefined)
9.4 nM | CC(C)C[C@H](NC(=O)C(CS(C)(=O)=O)NC(=O)[C@@H](NC(=O)OC(C)(C)C)C(C)C)C(O)CC(C)C(=O)N[C@H](C(=O)NCc1ccccc1)C(C)C (some centres undefined)
61.4 nM | CC(C)C[C@H](NC(=O)C(NC(=O)[C@@H](NC(=O)OC(C)(C)C)C(C)C)C(N)=O)C(O)CC(C)C(=O)N[C@@H](C)C(=O)NCc1ccccc1 (some centres undefined)
5.9 nM | CC(C)C[C@H](NC(=O)C(NC(=O)[C@@H](NC(=O)OC(C)(C)C)C(C)C)C(N)=O)C(O)CC(C)C(=O)N[C@H](C(=O)NCc1ccccc1)C(C)C (some centres undefined)
2.5 nM | CSCCC(NC(=O)[C@@H](NC(=O)OC(C)(C)C)C(C)C)C(=O)N[C@@H](CC(C)C)C(O)CC(C)C(=O)N[C@H](C(=O)NCc1ccccc1)C(C)C (some centres undefined)
0.3 nM | CC(C)C[C@H](NC(=O)[C@@H](N)CCC(=O)O)C(=O)N[C@@H](CC(=O)O)C(=O)N[C@@H](CC(C)C)C(=O)C(O)CN[C@@H](C)C(=O)N[C@H](C(=O)N[C@@H](CCC(=O)O)C(=O)N[C@@H](Cc1ccccc1)C(=O)O)C(C)C (some centres undefined)
